A word on the IC50: it is the point on the concentration scale where inhibition reaches its midpoint.

IC50 data for 22 compounds are collected here from patent US20220089592A1, “IMIDAZO[1,2-A]PYRIDINYL DERIVATIVES AS IRAK4 INHIBITORS” (priority 2019, published 2022).

SMILES strings stand for the structures. Counter-ions that a name gives are not always drawn.

The test deals with T1, IRAK4 (Homo sapiens, UniProt Q9NWZ3).
T1 sequence (Q9NWZ3 1-460): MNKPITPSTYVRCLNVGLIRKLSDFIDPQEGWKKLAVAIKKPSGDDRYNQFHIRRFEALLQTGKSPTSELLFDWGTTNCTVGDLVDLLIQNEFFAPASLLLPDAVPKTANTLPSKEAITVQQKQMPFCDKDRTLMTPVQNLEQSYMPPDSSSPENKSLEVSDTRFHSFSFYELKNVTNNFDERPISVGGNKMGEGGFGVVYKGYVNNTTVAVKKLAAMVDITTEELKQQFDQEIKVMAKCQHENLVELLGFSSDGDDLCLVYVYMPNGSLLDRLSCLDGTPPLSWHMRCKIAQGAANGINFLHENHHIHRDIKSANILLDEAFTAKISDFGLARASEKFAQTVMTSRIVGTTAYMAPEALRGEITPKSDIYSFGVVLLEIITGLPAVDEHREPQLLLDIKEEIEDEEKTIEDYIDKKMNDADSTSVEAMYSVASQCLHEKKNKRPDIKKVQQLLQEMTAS
The experiment in a line: 2-hour 1 mM ATP IRAK4 Biochemical assay (as above, but with 100 pM IRAK4 and 1 mM ATP). As to conditions: IRAK4 MSD BIOCHEMICAL (1 mM ATP) IC50 (μM), 100 pM IRAK4, 2 hours. Summed up: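 Run with 100 pM IRAK4 and 1 mM ATP for 2 hours, quenched with EDTA pH 8. Phosphorylated biotinylated peptide captured on streptavidin MSD plates and detected with anti-phosphothreonine antibody plus Sulfo-Tag secondary by electrochemiluminescence.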
For `COCc1cc2nc(C3CCOCC3)cn2cc1NC(=O)c1cccc(C)n1` [Example 371, N-(7-(methoxymethyl)-2-(tetrahydro-2H-pyran-4-yl)imidazo[1,2-a]pyridin-6-yl)-6-methylpicolinamide 2,2,2-trifluoroacetate], the half-inhibitory concentration (IC50) is 0.035 µM.

`CCOc1cc2nc(C3C4COCC43)cn2cc1NC(=O)c1ccn(C2CC2(F)F)n1` (stereo not shown) [Example 374, N-(2-(3-oxabicyclo[3.1.0]hexan-6-yl)-7-ethoxyimidazo[1,2-a]pyridin-6-yl)-1-(2,2-difluorocyclopropyl)-1H-pyrazole-3-carboxamide] came in with an IC50 of 0.002 µM.

In turn, `CCOc1cc2nc(C3C4COCC43)cn2cc1NC(=O)c1coc(C2CC2)n1` (stereo not shown) [Example 375, N-(2-(3-oxabicyclo[3.1.0]hexan-6-yl)-7-ethoxyimidazo[1,2-a]pyridin-6-yl)-2-cyclopropyloxazole-4-carboxamide] showed an IC50 of 0.004 µM.

Compound `CCOc1cc2nc(C3C4COCC43)cn2cc1NC(=O)c1coc(C(F)F)n1` (stereo not shown) [Example 376, N-(2-(3-oxabicyclo[3.1.0]hexan-6-yl)-7-ethoxyimidazo[1,2-a]pyridin-6-yl)-2-(difluoromethyl)oxazole-4-carboxamide 2,2,2-trifluoroacetate] registered an IC50 of 0.009 µM. This IC50 lies about 2.2-fold higher than the previous one.

With `CCOc1cc2nc(C3C4COCC43)cn2cc1NC(=O)c1csc(C(F)(F)F)n1` (stereo not shown) [Example 377, N-(2-(3-oxabicyclo[3.1.0]hexan-6-yl)-7-ethoxyimidazo[1,2-a]pyridin-6-yl)-2-(trifluoromethyl)thiazole-4-carboxamide 2,2,2-trifluoroacetate], the IC50 worked out at 0.001 µM.

For `CC(C)Oc1cc2nc(C3CCOCC3)cn2cc1NC(=O)c1cccc2c1OCC2` [Example 379, N-(7-isopropoxy-2-(tetrahydro-2H-pyran-4-yl)imidazo[1,2-a]pyridin-6-yl)-2,3-dihydrobenzofuran-7-carboxamide], the IC50 is 0.002 µM. Against the preceding compound, the IC50 is about 2-fold higher.

For the compound `CC(C)Oc1cc2nc(C3CCOCC3)cn2cc1NC(=O)c1cccc(C2CCOC2)n1` (stereo not shown) [Example 380, N-(7-isopropoxy-2-(tetrahydro-2H-pyran-4-yl)imidazo[1,2-a]pyridin-6-yl)-6-(tetrahydrofuran-3-yl)picolinamide hydrochloride], the IC50 is 0.002 µM.

On to `CC(C)Oc1cc2nc(C3CCOCC3)cn2cc1NC(=O)c1cc2ccccn2n1` [Example 381, N-(7-isopropoxy-2-(tetrahydro-2H-pyran-4-yl)imidazo[1,2-a]pyridin-6-yl)pyrazolo[1,5-a]pyridine-2-carboxamide 2,2,2-trifluoroacetate], for which the IC50 was 0.004 µM.

Take `CC(C)Oc1cc2nc(C3CCOCC3)cn2cc1NC(=O)c1cc2ncccn2n1` [Example 382, N-(7-isopropoxy-2-(tetrahydro-2H-pyran-4-yl)imidazo[1,2-a]pyridin-6-yl)pyrazolo[1,5-a]pyrimidine-2-carboxamide 2,2,2-trifluoroacetate]: the IC50 was found to be 0.022 µM.

Turning to `COCCn1ccc(C(=O)Nc2cn3cc(C4CCOCC4)nc3cc2OC(C)C)n1` [Example 383, N-(7-isopropoxy-2-(tetrahydro-2H-pyran-4-yl)imidazo[1,2-a]pyridin-6-yl)-1-(2-methoxyethyl)-1H-pyrazole-3-carboxamide 2,2,2-trifluoroacetate], the IC50 was 0.014 µM.

As to `CC(C)Oc1cc2nc(C3CCOCC3)cn2cc1NC(=O)c1ccn(C)n1` [Example 384, N-(7-isopropoxy-2-(tetrahydro-2H-pyran-4-yl)imidazo[1,2-a]pyridin-6-yl)-1-methyl-1H-pyrazole-3-carboxamide], it took 0.004 µM to reach half-maximal inhibition (IC50).

The compound `Cc1nc(C(=O)Nc2cn3cc(C4CCOCC4)nc3cc2OC(C)C)co1` [Example 386, N-(7-isopropoxy-2-(tetrahydro-2H-pyran-4-yl)imidazo[1,2-a]pyridin-6-yl)-2-methyloxazole-4-carboxamide] displayed an IC50 of 0.002 µM.

The compound `CC(C)Oc1cc2nc(C3CCOCC3)cn2cc1NC(=O)c1coc(C2CCOCC2)n1` [Example 387, N-(7-isopropoxy-2-(tetrahydro-2H-pyran-4-yl)imidazo[1,2-a]pyridin-6-yl)-2-(tetrahydro-2H-pyran-4-yl)oxazole-4-carboxamide 2,2,2-trifluoroacetate] showed an IC50 of 0.001 µM.

`COc1cccc(C(=O)Nc2cn3cc(C4CCOCC4)nc3cc2C(F)F)n1` [Example 389, N-(7-(difluoromethyl)-2-(tetrahydro-2H-pyran-4-yl)imidazo[1,2-a]pyridin-6-yl)-6-methoxypicolinamide 2,2,2-trifluoroacetate] returned an IC50 of 0.016 µM.

In turn, `Cn1ccc(C(=O)Nc2cn3cc(C45COC(C)(C4)C5)nc3cc2C(F)F)n1` [Example 390, N-(7-(difluoromethyl)-2-(1-methyl-2-oxabicyclo[2.1.1]hexan-4-yl)imidazo[1,2-a]pyridin-6-yl)-1-methyl-1H-pyrazole-3-carboxamide 2,2,2-trifluoroacetate] returned a half-inhibitory concentration (IC50) of 0.072 µM.

`COc1ncccc1C(=O)Nc1cn2cc(C34COC(C)(C3)C4)nc2cc1C(F)F` [Example 391, N-(7-(difluoromethyl)-2-(1-methyl-2-oxabicyclo[2.1.1]hexan-4-yl)imidazo[1,2-a]pyridin-6-yl)-2-methoxynicotinamide 2,2,2-trifluoroacetate] showed an IC50 of 0.021 µM. This IC50 is about 3.4-fold lower than that of the compound before.

The compound `Cc1cccc(C(=O)Nc2cn3cc(C45COC(C)(C4)C5)nc3cc2C(F)F)n1` [Example 392, N-(7-(difluoromethyl)-2-(1-methyl-2-oxabicyclo[2.1.1]hexan-4-yl)imidazo[1,2-a]pyridin-6-yl)-6-methylpicolinamide 2,2,2-trifluoroacetate] had a half-maximal inhibitory concentration (IC50) of 0.008 µM.

`CC12CC(c3cn4cc(NC(=O)c5cccc(C(F)F)n5)c(C(F)F)cc4n3)(CO1)C2` [Example 393, 6-(difluoromethyl)-N-(7-(difluoromethyl)-2-(1-methyl-2-oxabicyclo[2.1.1]hexan-4-yl)imidazo[1,2-a]pyridin-6-yl)picolinamide 2,2,2-trifluoroacetate] gave an IC50 of 0.003 µM. Against the preceding compound, the IC50 is about 2.7-fold lower.

In turn, `O=C(Nc1cn2cc(C3CCOCC3)nc2cc1OC(F)F)c1cccc(C(F)F)n1` [Example 394, N-(7-(difluoromethoxy)-2-(tetrahydro-2H-pyran-4-yl)imidazo[1,2-a]pyridin-6-yl)-6-(difluoromethyl)picolinamide] had an IC50 of 0.001 µM.

As to `CC12CC(c3cn4cc(NC(=O)c5cccc(C(F)F)n5)c(OC(F)F)cc4n3)(CO1)C2` [Example 395, N-(7-(difluoromethoxy)-2-(1-methyl-2-oxabicyclo[2.1.1]hexan-4-yl)imidazo[1,2-a]pyridin-6-yl)-6-(difluoromethyl)picolinamide 2,2,2-trifluoroacetate], half-maximal inhibition (IC50) required 0.001 µM.

Turning to `COc1ncccc1C(=O)Nc1cn2cc(C34COC(C)(C3)C4)nc2cc1OC(F)F` [Example 396, N-(7-(difluoromethoxy)-2-(1-methyl-2-oxabicyclo[2.1.1]hexan-4-yl)imidazo[1,2-a]pyridin-6-yl)-2-methoxynicotinamide 2,2,2-trifluoroacetate], the half-inhibitory concentration (IC50) is 0.002 µM.

Consider `Cn1ccc(C(=O)Nc2cn3cc(C45COC(C)(C4)C5)nc3cc2OC(F)F)n1` [Example 397, N-(7-(difluoromethoxy)-2-(1-methyl-2-oxabicyclo[2.1.1]hexan-4-yl)imidazo[1,2-a]pyridin-6-yl)-1-methyl-1H-pyrazole-3-carboxamide 2,2,2-trifluoroacetate], for which the IC50 was found to be 0.021 µM.
